According to patent publication US10100058B2, “Fused heterocyclic compounds as CaM kinase inhibitors” (Gilead Sciences, Inc., priority 2016, dated 2018):

The compounds below were run against recombinant CaMKIIδ (Homo sapiens (Human), UniProt Q13557) (assay: CaMKIIδ biochemical assay (HTRF)). Settings: 10 pM CaMKIIδ, 110 nM calmodulin, 12 μM ATP, 1 hour; read-out: CAMKIID-HTRF-384V2 (IC50 - nM).
Protocol: CaMKIIδ Biochemical Assay
The biochemical activity of recombinant CaMKIIδ was measured by monitoring the phosphorylation of a target peptide using Homogenous Time Resolved Fluorescence (HTRF) technology from CisBio Bioassays.

SMILES | IC50
CCN(CC)[C@@H](C)CNC(=O)c1cc(-c2cnn3ccc(-c4cccs4)nc23)nc(N2CC[C@H]2C(=O)N2CC(F)(F)C2)c1 [Example 294, N—((S)-2-(diethylamino)propyl)-2-((S)-2-(3,3-difluoroazetidine-1-carbonyl)azetidin-1-yl)-6-(5-(thiophen-2-yl)pyrazolo[1,5-a]pyrimidin-3-yl)isonicotinamide] | 0.22 nM
CCN(CC)[C@@H](C)CNC(=O)c1cc(-c2cnn3ccc(-c4cccs4)nc23)nc(N2CC[C@H]2C(=O)N2CCS(=O)(=O)CC2)c1 [Example 303, N—((S)-2-(diethylamino)propyl)-2-((S)-2-(1,1-dioxidothiomorpholine-4-carbonyl)azetidin-1-yl)-6-(5-(thiophen-2-yl)pyrazolo[1,5-a]pyrimidin-3-yl)isonicotinamide] | 0.16 nM
CNC(=O)[C@@H]1CCN1c1cc(C(=O)NC[C@H](C)N)cc(-c2cnn3ccc(-c4cccs4)nc23)n1 [Example 305, N—((S)-2-aminopropyl)-2-((S)-2-(methylcarbamoyl)azetidin-1-yl)-6-(5-(thiophen-2-yl)pyrazolo[1,5-a]pyrimidin-3-yl)isonicotinamide] | 51.7 nM
CCN(CC)[C@@H](C)CNC(=O)c1cc(-c2cnn3ccc(-c4ccns4)nc23)nc(N2CC[C@H]2C(=O)NC)c1 [Example 307, N—((S)-2-(diethylamino)propyl)-2-(5-(isothiazol-5-yl)pyrazolo[1,5-a]pyrimidin-3-yl)-6-((S)-2-(methylcarbamoyl)azetidin-1-yl)isonicotinamide] | 0.27 nM
CCN(CC)[C@@H](C)CNC(=O)c1cc(-c2cnn3ccc(-c4cccs4)nc23)nc(N2CC[C@H]2c2nc(C)no2)c1 [Example 308, N—((S)-2-(diethylamino)propyl)-2-((S)-2-(3-methyl-1,2,4-oxadiazol-5-yl)azetidin-1-yl)-6-(5-(thiophen-2-yl)pyrazolo[1,5-a]pyrimidin-3-yl)isonicotinamide] | 0.71 nM
CCN(CC)[C@@H](C)CNC(=O)c1cc(-c2cnn3ccc(-c4cccs4)nc23)nc(N2CC[C@H](C(=O)NC)C2)c1 [Example 310, N—((S)-2-(diethylamino)propyl)-2-((S)-3-(methylcarbamoyl)pyrrolidin-1-yl)-6-(5-(thiophen-2-yl)pyrazolo[1,5-a]pyrimidin-3-yl)isonicotinamide] | 0.25 nM
CCN(CC)[C@@H](C)CNC(=O)c1cc(-c2cnn3ccc(-c4cccs4)nc23)nc(N2CC[C@H](N)C2)c1 [Example 317, 2-((S)-3-aminopyrrolidin-1-yl)-N—((S)-2-(diethylamino)propyl)-6-(5-(thiophen-2-yl)pyrazolo[1,5-a]pyrimidin-3-yl)isonicotinamide] | 0.07 nM
CCN(CC)[C@@H](C)CNC(=O)c1cc(-c2cnn3ccc(-c4cccs4)nc23)nc(N2CC[C@@H](N)C2)c1 [Example 318, 2-((R)-3-aminopyrrolidin-1-yl)-N—((S)-2-(diethylamino)propyl)-6-(5-(thiophen-2-yl)pyrazolo[1,5-a]pyrimidin-3-yl)isonicotinamide] | 0.05 nM
CC(C)(O)CNc1cc(C(=O)N2CC3CCC(C2)NC3)cc(-c2cnn3ccc(-c4cccs4)nc23)n1 (centres unmarked) [Example 322, (-3,6-diazabicyclo[3.2.2]nonan-3-yl)(2-((2-hydroxy-2-methylpropyl)amino)-6-(5-(thiophen-2-yl)pyrazolo[1,5-a]pyrimidin-3-yl)pyridin-4-yl)methanone] | 5.01 nM
COCCNc1cc(C(=O)N2CC3CCC(C2)NC3)cc(-c2cnn3ccc(-c4cccs4)nc23)n1 (centres unmarked) [Example 323, (-3,6-diazabicyclo[3.2.2]nonan-3-yl)(2-((2-methoxyethyl)amino)-6-(5-(thiophen-2-yl)pyrazolo[1,5-a]pyrimidin-3-yl)pyridin-4-yl)methanone] | 3.22 nM
O=C(c1cc(-c2cnn3ccc(-c4cccs4)nc23)nc(N2CCN(C3COC3)CC2)c1)N1CC2CCC(C1)NC2 (centres unmarked) [Example 324, (-3,6-diazabicyclo[3.2.2]nonan-3-yl)(2-(4-(oxetan-3-yl)piperazin-1-yl)-6-(5-(thiophen-2-yl)pyrazolo[1,5-a]pyrimidin-3-yl)pyridin-4-yl)methanone] | 3.59 nM

Further compounds by falling IC50, results first:

IC50 | SMILES
32.8 nM | CCN(CC)[C@@H](C)CNC(=O)c1cc(-c2cnn3ccc(-c4cccs4)nc23)nc(N2CCC[C@@H]2C(=O)NC)c1 [Example 320, N—((S)-2-(diethylamino)propyl)-2-((R)-2-(methylcarbamoyl)pyrrolidin-1-yl)-6-(5-(thiophen-2-yl)pyrazolo[1,5-a]pyrimidin-3-yl)isonicotinamide]
10.6 nM | CCN[C@@H](C)CNC(=O)c1cc(-c2cnn3ccc(-c4cccs4)nc23)nc(N2CC[C@H]2C(=O)NC)c1 [Example 306, N—((S)-2-(ethylamino)propyl)-2-((S)-2-(methylcarbamoyl)azetidin-1-yl)-6-(5-(thiophen-2-yl)pyrazolo[1,5-a]pyrimidin-3-yl)isonicotinamide]
3.02 nM | CCN(CC)[C@@H](C)CNC(=O)c1cc(-c2cnn3ccc(-c4cccs4)nc23)nc(N2CCC[C@H]2C(=O)NC)c1 [Example 319, N—((S)-2-(diethylamino)propyl)-2-((S)-2-(methylcarbamoyl)pyrrolidin-1-yl)-6-(5-(thiophen-2-yl)pyrazolo[1,5-a]pyrimidin-3-yl)isonicotinamide]
2.16 nM | CCN(CC)[C@@H](C)CNC(=O)c1cc(-c2cnn3ccc(-c4ccccc4)nc23)nc(N2CC[C@H]2C(=O)NC)c1 [Example 309, N—((S)-2-(diethylamino)propyl)-2-((S)-2-(methylcarbamoyl)azetidin-1-yl)-6-(5-phenylpyrazolo[1,5-a]pyrimidin-3-yl)isonicotinamide]
1.93 nM | CCN(CC)[C@@H](C)CNC(=O)c1cc(-c2cnn3ccc(-c4cccs4)nc23)nc(N2CC[C@H]2C(=O)O)c1 [Example 296, (S)-1-(4-(((S)-2-(diethylamino)propyl)carbamoyl)-6-(5-(thiophen-2-yl)pyrazolo[1,5-a]pyrimidin-3-yl)pyridin-2-yl)azetidine-2-carboxylic Acid]
0.58 nM | CCN(CC)[C@@H](C)CNC(=O)c1cc(-c2cnn3ccc(-c4cccs4)nc23)nc(N2CC[C@H]2C(=O)NCC#N)c1 [Example 300, 2-((S)-2-((cyanomethyl)carbamoyl)azetidin-1-yl)-N—((S)-2-(diethylamino)propyl)-6-(5-(thiophen-2-yl)pyrazolo[1,5-a]pyrimidin-3-yl)isonicotinamide]
0.48 nM | CCN(CC)[C@@H](C)CNC(=O)c1cc(-c2cnn3ccc(-c4cccs4)nc23)nc(N2CC[C@H]2C(=O)NCCOC)c1 [Example 301, N—((S)-2-(diethylamino)propyl)-2-((S)-2-((2-methoxyethyl)carbamoyl)azetidin-1-yl)-6-(5-(thiophen-2-yl)pyrazolo[1,5-a]pyrimidin-3-yl)isonicotinamide]
0.25 nM | CCN(CC)[C@@H](C)CNC(=O)c1cc(-c2cnn3ccc(-c4cccs4)nc23)nc(N2CC[C@H]2C(=O)N2CC(OC)C2)c1 [Example 295, N—((S)-2-(diethylamino)propyl)-2-((S)-2-(3-methoxyazetidine-1-carbonyl)azetidin-1-yl)-6-(5-(thiophen-2-yl)pyrazolo[1,5-a]pyrimidin-3-yl)isonicotinamide]
0.23 nM | CCN(CC)[C@@H](C)CNC(=O)c1cc(-c2cnn3ccc(-c4cccs4)nc23)nc(N2CC[C@H]2C(=O)N(C)O)c1 [Example 298, N—((S)-2-(diethylamino)propyl)-2-((S)-2-(hydroxy(methyl)carbamoyl)azetidin-1-yl)-6-(5-(thiophen-2-yl)pyrazolo[1,5-a]pyrimidin-3-yl)isonicotinamide]
0.23 nM | CCN(CC)[C@@H](C)CNC(=O)c1cc(-c2cnn3ccc(-c4cccs4)nc23)nc(N2CC[C@@H](C(=O)NC)C2)c1 [Example 311, N—((S)-2-(diethylamino)propyl)-2-((R)-3-(methylcarbamoyl)pyrrolidin-1-yl)-6-(5-(thiophen-2-yl)pyrazolo[1,5-a]pyrimidin-3-yl)isonicotinamide]
0.22 nM | CCN(CC)[C@@H](C)CNC(=O)c1cc(-c2cnn3ccc(-c4cccs4)nc23)nc(N2CC[C@H]2C(N)=O)c1 [Example 299, 2-((S)-2-carbamoylazetidin-1-yl)-N—((S)-2-(diethylamino)propyl)-6-(5-(thiophen-2-yl)pyrazolo[1,5-a]pyrimidin-3-yl)isonicotinamide]
0.21 nM | CCN(CC)[C@@H](C)CNC(=O)c1cc(-c2cnn3ccc(-c4cccs4)nc23)nc(N2CC[C@@H](C#N)C2)c1 [Example 312, 2-((R)-3-cyanopyrrolidin-1-yl)-N—((S)-2-(diethylamino)propyl)-6-(5-(thiophen-2-yl)pyrazolo[1,5-a]pyrimidin-3-yl)isonicotinamide]
0.2 nM | CCN(CC)[C@@H](C)CNC(=O)c1cc(-c2cnn3ccc(-c4cccs4)nc23)nc(N2CC[C@H]2C(=O)N2CC(S(C)(=O)=O)C2)c1 [Example 302, N—((S)-2-(diethylamino)propyl)-2-((S)-2-(3-(methylsulfonyl)azetidine-1-carbonyl)azetidin-1-yl)-6-(5-(thiophen-2-yl)pyrazolo[1,5-a]pyrimidin-3-yl)isonicotinamide]
0.17 nM | CCN(CC)[C@@H](C)CNC(=O)c1cc(-c2cnn3ccc(-c4cccs4)nc23)nc(N2CC[C@H]2C(=O)N2CC(O)C2)c1 [Example 304, N—((S)-2-(diethylamino)propyl)-2-((S)-2-(3-hydroxyazetidine-1-carbonyl)azetidin-1-yl)-6-(5-(thiophen-2-yl)pyrazolo[1,5-a]pyrimidin-3-yl)isonicotinamide]
0.14 nM | CCN(CC)[C@@H](C)CNC(=O)c1cc(-c2cnn3ccc(-c4cccs4)nc23)nc(N2CCNC(=O)C2)c1 [Example 314, (S)—N-(2-(diethylamino)propyl)-2-(3-oxopiperazin-1-yl)-6-(5-(thiophen-2-yl)pyrazolo[1,5-a]pyrimidin-3-yl)isonicotinamide]
